Results published in ChEMBL document CHEMBL1201862, “PubChem BioAssay data set” (2004).
Activity calls are given as the source filed them.

Experiments:
[1] = molecular target: Sphingosine 1-phosphate receptor 2 (Homo sapiens, UniProt O95136); assay: Dose Response Cell Based Assay for Agonists of the S1P2 Receptor of Purchased Analogues. [Related pubchem assays: 729, 843, 854, 736 ]; format: functional
[2] = tested on: HeLa; assay: viability loss in HeLa cells – cell-based, 24 h, cherry-picked samples, cytotoxicity control, dose response (AID 504726); format: functional; conditions: Homo sapiens;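 further: potency for cytotoxicity as loss of luminescence signal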
[3] = molecular target: Luciferin 4-monooxygenase (Photinus pyralis, UniProt P08659); assay: Counter Screen for Luciferase-based Assay Positives. [Related pubchem assays: 620, 618, 411 ]
[4] = alpha-synuclein stem-loop luciferase translation blockers – H4 neuroglioma cells, luminescence, confirmation (AID 1988); format: functional, cell-based
[5] = Luminescence Cell-Based Dose Response HTS to Identify Inhibitors of 5'UTR Stem-Loop Driven Prion Protein mRNA Translation in H4 Neuroglioblastoma Cells. [Related pubchem assays: 1827 (Project Summary), 1813 (Primary HTS)]; format: functional
[6] = blockade of melanocortin 4 receptor signaling – cell-based, plate reader, cherry pick, counter-screen for LGR2 antagonist project, dose response (AID 743444); format: functional;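 further: transfected HEK 293 cells stimulated with alpha-MSH peptide; potency of inhibitors of the alpha-MSH evoked signal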
[7] = tested on: HT-1080; assay: HT1080 cell viability loss – fluorescence readout (AID 620); format: functional, cell-based; conditions: Homo sapiens
[8] = blockers of bursicon-stimulated LGR2 cAMP reporter – cell-based, HEK293, CRE-luciferase reporter, cherry pick, set 2, dose response (AID 743343); format: functional;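 further: transfected cells were stimulated with diluted bursicon conditioned medium after compound addition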
[9] = molecular target: T1, Estrogen receptor (Homo sapiens, UniProt P03372); assay: blockers of SRC-3 recruitment to ERα – biochemical, ELISA, streptavidin-HRP readout, orthogonal assay, confirmation (AID 1079)
T1 sequence (P03372 whole entry): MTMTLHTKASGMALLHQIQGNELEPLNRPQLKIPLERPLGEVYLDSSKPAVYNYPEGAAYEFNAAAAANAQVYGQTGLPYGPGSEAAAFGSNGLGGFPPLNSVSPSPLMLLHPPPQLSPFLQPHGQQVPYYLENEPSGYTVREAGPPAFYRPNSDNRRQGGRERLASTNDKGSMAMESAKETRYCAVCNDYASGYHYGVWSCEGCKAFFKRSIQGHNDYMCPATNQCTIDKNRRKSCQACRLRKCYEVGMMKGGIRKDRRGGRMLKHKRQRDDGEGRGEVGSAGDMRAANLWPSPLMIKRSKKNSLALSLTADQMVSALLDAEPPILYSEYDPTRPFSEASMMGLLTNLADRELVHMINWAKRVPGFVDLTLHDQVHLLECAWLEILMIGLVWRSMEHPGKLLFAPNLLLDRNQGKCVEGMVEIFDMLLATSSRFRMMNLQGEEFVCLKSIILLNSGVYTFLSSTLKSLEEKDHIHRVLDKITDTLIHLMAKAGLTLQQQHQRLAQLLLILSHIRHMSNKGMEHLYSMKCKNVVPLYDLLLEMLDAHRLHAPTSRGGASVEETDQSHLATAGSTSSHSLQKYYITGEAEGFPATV

[10] = molecular target: Caspase-6 (Homo sapiens, UniProt P55212); assay: inhibition of CASP6 peptide cleavage – biochemical, VEID-R110 fluorescence, cherry-pick, dose response (AID 720632)
[11] = antiviral protection against BTV-induced cell death – arbovirus, BSR cells, confirmation (AID 1250); format: functional;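 further: protection from viral cytopathic effect measured as cell viability by ATP luminescence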
[12] = cells; format: functional
[13] = molecular target: Neuropeptide Y receptor type 2 (Homo sapiens, UniProt P49146); assay: IC50 for human NPY-Y2 blockade – cell-based, counter-screen for NPY-Y1 antagonist project, dose response (AID 1278); format: functional
[14] = molecular target: Neuropeptide Y receptor type 1 (Homo sapiens, UniProt P25929); assay: IC50 of human NPY-Y1 blockers – cell-based, dose response (AID 1277); format: functional
[15] = microbe, parasite or virus in culture; format: functional; conditions: Mycobacterium tuberculosis
[16] = THP-1 cell cytotoxicity, dose response, cytotoxicity control for non-replicating M. tuberculosis project (AID 489025); format: functional
[17] = molecular target: Galanin receptor type 2 (Homo sapiens, UniProt O43603); assay: Dose Response cell-based high-throughput screening assay to identify antagonists of galanin receptor 2 (GALR2). [Related pubchem assays: 828, 866 ]; format: functional
[18] = molecular target: T2, Rac GTPase-activating protein 1 (Homo sapiens, UniProt Q9H0H5); assay: blockers of MgcRacGAP-driven Rac1 GTP hydrolysis – biochemical, ADP Hunter fluorescence, primary and confirmatory, confirmation (AID 624330); format: functional
T2 sequence (Q9H0H5 whole entry): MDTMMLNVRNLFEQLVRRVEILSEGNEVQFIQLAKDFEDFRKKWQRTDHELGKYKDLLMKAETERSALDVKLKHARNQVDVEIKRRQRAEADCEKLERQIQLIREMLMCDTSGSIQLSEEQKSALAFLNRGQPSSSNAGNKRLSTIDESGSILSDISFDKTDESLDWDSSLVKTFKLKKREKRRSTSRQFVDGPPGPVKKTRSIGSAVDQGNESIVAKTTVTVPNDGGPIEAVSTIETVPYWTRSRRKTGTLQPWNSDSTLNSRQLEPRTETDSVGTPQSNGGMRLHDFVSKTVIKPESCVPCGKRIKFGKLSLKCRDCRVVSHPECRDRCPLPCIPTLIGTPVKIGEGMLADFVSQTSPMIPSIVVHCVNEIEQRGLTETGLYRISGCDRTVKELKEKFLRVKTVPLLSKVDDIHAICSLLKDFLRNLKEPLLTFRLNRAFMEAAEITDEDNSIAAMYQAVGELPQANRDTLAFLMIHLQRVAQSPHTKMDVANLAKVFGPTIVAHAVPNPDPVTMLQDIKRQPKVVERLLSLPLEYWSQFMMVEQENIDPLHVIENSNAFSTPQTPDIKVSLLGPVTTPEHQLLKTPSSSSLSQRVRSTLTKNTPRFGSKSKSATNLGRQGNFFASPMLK

[19] = molecular target: T3, NADPH oxidase 1 (Homo sapiens, UniProt Q9Y5S8); format: functional, cell-based
T3 sequence (Q9Y5S8 whole entry): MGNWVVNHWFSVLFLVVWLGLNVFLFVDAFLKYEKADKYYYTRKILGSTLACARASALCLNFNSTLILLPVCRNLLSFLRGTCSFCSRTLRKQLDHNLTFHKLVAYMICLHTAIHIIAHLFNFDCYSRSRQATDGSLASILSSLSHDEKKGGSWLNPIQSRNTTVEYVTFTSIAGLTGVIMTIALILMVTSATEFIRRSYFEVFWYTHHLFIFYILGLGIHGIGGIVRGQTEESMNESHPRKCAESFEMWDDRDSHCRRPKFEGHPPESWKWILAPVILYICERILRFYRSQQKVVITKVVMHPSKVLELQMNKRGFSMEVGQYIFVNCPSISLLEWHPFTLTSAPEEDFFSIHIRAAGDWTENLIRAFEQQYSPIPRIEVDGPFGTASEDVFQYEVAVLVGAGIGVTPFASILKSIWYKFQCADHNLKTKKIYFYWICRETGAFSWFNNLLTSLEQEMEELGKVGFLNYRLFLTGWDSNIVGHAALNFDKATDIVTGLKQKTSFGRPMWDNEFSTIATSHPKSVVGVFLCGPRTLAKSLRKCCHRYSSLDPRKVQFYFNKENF

[20] = molecular target: T3, NADPH oxidase 1; assay: Luminescence-based cell-based dose response assay to identify inhibitors of NADPH oxidase 1 (NOX1).; format: functional
[21] = molecular target: Estrogen receptor beta (Homo sapiens, UniProt Q92731); assay: blockers of SRC-3 recruitment to ERβ – biochemical, ELISA, streptavidin-HRP readout, orthogonal assay, confirmation (AID 1060)
[22] = tested on: Vero; assay: cells; format: functional; conditions: Chlorocebus sabaeus
[23] = A Cell Based Secondary Assay To Explore Cytotoxicity of Compounds that Sensitize Mycobacterium Tuberculosis to Beta-Lactam Antibiotics.; format: functional
[24] = A cytotoxicity screen of small molecule inhibitors of the PhoP region in Salmonella typhi identified in the primary screen. [Related pubchem assays: 1850, 1864, 1985 ]; format: functional
[25] = molecular target: Acyl-homoserine lactone acylase PvdQ (Pseudomonas aeruginosa (strain LESB58), UniProt Q9I194); assay: PvdQ acylase enzyme activity blockers – biochemical, fluorescence, plate reader and imaging, cherry-picks, dose response (AID 493231)
[26] = molecular target: Polyadenylate-binding protein 1 (Homo sapiens, UniProt P11940); assay: blockers of PABP interaction with poly(A) – biochemical, fluorescence polarization, […] (AID 2014)
[27] = molecular target: Eukaryotic translation initiation factor 4H (Homo sapiens, UniProt Q15056); assay: eIF4H binding inhibition – biochemical, uHTS, fluorescence polarization, translation initiation inhibitor project, primary screen (AID 2012)
[28] = molecular target: NS3 (Hepatitis C virus, UniProt A3EZJ3); assay: PubChem AID 2173; parameters: species or system Hepacivirus hominis
[29] = molecular target: Serine/threonine-protein phosphatase (Homo sapiens, UniProt Q9BPW0); assay: Counterscreen for inhibitors of PP1: fluorescence-based biochemical high throughput dose response assay to identify inhibitors of Protein Phosphatase 5 (PP5). [Related pubchem assays: 2034 (Summary (PP5 inhibitors)), 1987 (PP5 inhibitors in singlate), 2235 (PP1 inhibitors in singlate)]
[30] = molecular target: Serine/threonine-protein phosphatase PP1-alpha catalytic subunit (Homo sapiens, UniProt P62136); assay: inhibition of protein phosphatase 1 activity – biochemical, fluorescence, dose response (AID 2403);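 further: phosphatase turnover of OMFP into fluorescent 3-O-methylfluorescein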
[31] = molecular target: Signal transducer and activator of transcription 3 (Homo sapiens, UniProt P40763); assay: STAT3 activation with BCL3 mRNA and toxicity – cell-based, […], BCL3 qPCR, cytotoxicity, late-stage follow-up, panel member STAT3 Activation (AID 2049)
Sequence of Signal transducer and activator of transcription 3 (P40763 whole entry): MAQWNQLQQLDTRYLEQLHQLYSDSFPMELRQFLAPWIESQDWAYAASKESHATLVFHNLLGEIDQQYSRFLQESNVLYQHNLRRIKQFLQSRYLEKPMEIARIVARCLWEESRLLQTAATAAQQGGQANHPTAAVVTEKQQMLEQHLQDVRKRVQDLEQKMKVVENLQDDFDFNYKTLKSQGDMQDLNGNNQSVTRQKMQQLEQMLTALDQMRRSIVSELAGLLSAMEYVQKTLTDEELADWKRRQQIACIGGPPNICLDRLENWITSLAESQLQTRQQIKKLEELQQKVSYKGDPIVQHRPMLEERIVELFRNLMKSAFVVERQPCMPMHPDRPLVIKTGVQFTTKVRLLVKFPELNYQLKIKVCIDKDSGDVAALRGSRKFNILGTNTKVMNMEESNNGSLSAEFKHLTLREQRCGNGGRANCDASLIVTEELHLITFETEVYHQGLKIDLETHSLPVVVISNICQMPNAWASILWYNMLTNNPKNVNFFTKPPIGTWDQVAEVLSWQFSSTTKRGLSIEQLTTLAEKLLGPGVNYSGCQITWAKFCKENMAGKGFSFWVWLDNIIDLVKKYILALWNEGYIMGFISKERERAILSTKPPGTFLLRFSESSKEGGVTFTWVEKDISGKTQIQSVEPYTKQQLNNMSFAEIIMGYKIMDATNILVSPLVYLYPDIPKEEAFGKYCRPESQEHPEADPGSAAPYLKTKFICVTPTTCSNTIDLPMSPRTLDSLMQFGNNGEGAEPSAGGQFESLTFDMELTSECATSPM

Sequence of Caspase-6 (P55212 24-179 limits assumed): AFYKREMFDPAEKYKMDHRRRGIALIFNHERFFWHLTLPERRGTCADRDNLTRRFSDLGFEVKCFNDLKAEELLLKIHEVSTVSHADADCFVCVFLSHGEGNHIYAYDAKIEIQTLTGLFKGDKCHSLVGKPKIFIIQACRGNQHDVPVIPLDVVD
Sequence of Caspase-6 (P55212 194-293 limits assumed): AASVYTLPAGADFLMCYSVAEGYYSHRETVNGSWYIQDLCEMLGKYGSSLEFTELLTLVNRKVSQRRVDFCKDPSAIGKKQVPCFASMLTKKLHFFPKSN
Sequence of Neuropeptide Y receptor type 2 (P49146 whole entry): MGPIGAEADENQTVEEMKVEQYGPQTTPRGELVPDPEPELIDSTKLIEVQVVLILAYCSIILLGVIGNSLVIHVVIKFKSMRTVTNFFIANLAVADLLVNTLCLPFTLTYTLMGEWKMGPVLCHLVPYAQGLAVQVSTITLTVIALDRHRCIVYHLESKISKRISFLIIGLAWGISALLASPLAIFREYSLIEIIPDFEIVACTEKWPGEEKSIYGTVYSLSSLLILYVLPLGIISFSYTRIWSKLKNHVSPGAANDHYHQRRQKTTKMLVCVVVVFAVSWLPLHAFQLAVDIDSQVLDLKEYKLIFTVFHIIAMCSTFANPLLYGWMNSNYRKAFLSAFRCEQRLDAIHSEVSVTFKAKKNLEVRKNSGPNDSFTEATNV
Sequence of Luciferin 4-monooxygenase (P08659 whole entry): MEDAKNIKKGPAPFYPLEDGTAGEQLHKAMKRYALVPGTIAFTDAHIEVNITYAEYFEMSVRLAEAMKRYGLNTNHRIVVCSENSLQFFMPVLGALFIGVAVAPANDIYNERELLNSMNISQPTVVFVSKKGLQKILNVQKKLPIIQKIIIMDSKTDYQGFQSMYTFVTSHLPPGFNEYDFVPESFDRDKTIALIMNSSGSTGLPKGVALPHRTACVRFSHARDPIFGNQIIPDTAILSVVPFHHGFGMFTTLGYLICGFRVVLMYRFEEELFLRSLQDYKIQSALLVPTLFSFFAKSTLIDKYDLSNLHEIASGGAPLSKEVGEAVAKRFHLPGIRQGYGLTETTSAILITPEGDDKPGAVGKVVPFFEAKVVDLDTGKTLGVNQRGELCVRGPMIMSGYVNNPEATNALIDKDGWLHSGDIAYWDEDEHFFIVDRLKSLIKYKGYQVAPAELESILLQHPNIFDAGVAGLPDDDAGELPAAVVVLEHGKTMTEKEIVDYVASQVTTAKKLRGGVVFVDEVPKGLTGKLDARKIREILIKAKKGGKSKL
Sequence of Sphingosine 1-phosphate receptor 2 (O95136 whole entry): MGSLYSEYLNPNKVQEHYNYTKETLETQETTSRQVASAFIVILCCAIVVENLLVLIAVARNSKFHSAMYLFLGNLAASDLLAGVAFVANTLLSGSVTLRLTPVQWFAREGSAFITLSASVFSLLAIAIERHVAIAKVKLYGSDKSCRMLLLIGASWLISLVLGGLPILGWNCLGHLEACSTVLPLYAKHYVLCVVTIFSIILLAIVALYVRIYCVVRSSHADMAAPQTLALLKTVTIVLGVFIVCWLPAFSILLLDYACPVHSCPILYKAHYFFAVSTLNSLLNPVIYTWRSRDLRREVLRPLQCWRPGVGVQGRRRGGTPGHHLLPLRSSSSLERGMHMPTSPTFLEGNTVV
Sequence of Serine/threonine-protein phosphatase PP1-alpha catalytic subunit (P62136 whole entry): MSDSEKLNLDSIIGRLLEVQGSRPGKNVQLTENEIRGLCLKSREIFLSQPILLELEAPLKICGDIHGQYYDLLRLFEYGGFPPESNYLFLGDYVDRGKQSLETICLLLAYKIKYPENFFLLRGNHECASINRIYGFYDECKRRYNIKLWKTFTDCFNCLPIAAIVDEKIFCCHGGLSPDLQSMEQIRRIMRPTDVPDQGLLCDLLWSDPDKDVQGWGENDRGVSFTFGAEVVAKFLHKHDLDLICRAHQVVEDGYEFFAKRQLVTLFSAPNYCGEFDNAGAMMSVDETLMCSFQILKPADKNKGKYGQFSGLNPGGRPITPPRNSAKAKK
Sequence of Galanin receptor type 2 (O43603 whole entry): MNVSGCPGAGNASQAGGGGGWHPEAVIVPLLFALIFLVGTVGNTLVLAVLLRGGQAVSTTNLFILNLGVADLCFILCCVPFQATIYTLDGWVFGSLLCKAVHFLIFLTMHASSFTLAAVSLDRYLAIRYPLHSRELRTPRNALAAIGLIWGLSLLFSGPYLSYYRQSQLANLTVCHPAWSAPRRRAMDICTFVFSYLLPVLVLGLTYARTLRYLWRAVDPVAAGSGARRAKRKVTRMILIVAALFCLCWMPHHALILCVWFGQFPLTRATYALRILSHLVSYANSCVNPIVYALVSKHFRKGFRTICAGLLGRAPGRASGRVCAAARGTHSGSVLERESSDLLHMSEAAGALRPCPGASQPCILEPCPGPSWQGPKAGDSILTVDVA
Sequence of Acyl-homoserine lactone acylase PvdQ (Q9I194 24-193 limits assumed): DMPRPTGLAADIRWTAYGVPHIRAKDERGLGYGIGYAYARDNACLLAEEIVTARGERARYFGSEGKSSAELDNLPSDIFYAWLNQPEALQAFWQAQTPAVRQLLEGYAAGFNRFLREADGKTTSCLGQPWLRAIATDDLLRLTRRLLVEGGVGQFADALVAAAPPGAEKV
Sequence of Acyl-homoserine lactone acylase PvdQ (Q9I194 217-762 limits assumed): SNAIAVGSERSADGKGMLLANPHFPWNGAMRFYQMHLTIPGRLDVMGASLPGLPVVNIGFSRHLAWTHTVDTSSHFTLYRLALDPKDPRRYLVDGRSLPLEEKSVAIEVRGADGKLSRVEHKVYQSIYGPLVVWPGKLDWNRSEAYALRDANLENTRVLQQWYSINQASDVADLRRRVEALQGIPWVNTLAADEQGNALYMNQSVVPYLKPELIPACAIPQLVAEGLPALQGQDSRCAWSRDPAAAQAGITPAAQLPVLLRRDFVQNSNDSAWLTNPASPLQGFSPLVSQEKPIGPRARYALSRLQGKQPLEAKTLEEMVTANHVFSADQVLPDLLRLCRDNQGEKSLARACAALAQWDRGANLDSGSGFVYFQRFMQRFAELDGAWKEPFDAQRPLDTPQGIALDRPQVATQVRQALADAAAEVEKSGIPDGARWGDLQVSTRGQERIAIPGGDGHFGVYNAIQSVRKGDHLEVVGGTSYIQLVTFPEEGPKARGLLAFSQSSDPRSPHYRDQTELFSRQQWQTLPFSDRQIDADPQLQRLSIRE
Sequence of Polyadenylate-binding protein 1 (P11940 whole entry): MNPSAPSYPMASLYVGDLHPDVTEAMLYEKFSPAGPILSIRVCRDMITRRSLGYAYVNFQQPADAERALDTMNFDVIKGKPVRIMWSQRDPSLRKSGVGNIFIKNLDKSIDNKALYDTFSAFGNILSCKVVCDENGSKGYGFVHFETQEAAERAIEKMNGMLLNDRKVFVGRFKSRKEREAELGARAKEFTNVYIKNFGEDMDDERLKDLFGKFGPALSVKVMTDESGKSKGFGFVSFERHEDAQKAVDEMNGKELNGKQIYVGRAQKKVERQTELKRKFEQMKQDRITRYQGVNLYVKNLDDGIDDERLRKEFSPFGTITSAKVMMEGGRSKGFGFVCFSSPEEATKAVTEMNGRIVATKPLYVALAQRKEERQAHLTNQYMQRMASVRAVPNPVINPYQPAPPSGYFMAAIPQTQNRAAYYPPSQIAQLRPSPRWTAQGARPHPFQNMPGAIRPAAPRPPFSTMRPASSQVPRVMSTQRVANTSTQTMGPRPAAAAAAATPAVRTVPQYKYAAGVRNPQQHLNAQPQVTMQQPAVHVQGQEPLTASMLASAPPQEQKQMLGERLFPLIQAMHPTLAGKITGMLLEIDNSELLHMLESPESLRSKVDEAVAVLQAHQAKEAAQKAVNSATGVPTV

In the case of `Cc1sc2ncn(CC(=O)c3cc(C)n(Cc4ccccc4)c3C)c(=O)c2c1C`, the EC50 [1] is reported as > 30 µM (not active).

With `CCCN(CCC)C(=O)C1c2ccccc2Oc2ccccc21` the AC50 [2] was 81.4 µM (active).

For `O=C(Nc1nc2c(s1)CCCC2)C1COc2ccccc2O1` (stereo unspecified), the EC50 [3] was < 0.2 µM (active), the EC50 [4] was 5.78 µM (active) and the EC50 [5] was 6.51 µM (active). For the same compound, the AC50 [6] was 12.1 µM (active), the EC50 [7] was > 50 µM (not active) and the AC50 [8] was 6.29 µM (active).

For `O=C(CCCn1c(=S)[nH]c2ccccc2c1=O)N1CCN(c2cccc(O)c2)CC1`, the IC50 [9] was 1.62 µM (not active).

With `O=C(O)C1CCCCC1C(=O)Nc1nc(-c2ccc(Cl)s2)cs1` (stereo unspecified) the AC50 [10] was 32.9 µM (active) and the IC50 [11] was 38.5 µM (active).

For `Cc1ccc(-n2cc(CNCCn3nc(C)cc3C)c(-c3ccc(F)cc3)n2)cc1`, the IC50 [12] was 4.38 µM (active), the IC50 [13] was > 35 µM (not active) and the IC50 [14] was 10.6 µM (not active). For the same compound, the CC50 [15] was > 40 µM (active) and the CC50 [16] was 23.5 µM (active).

With `O=C(/C=C/c1ccc(Cl)cc1)NC(=S)Nc1ccc(NC(=O)c2ccco2)cc1` the IC50 [17] was 6.76 µM (active).

For `COc1ccc(NC(=O)Nc2ccc(N(C)C)cc2)cc1`, the IC50 [18] was 23.5 µM (active), the IC50 [19] was 0.432 µM (active) and the IC50 [20] was 0.156 µM (active). For the same compound, the IC50 [21] was 14.4 µM (not active).

With `Cn1c(=O)c2ccccc2n2c(CCl)nnc12` the CC50 [22] was 18 µM (active) and the CC50 [23] was 30.5 µM (active).

For `O=C(Nc1ccc(Cl)cc1)c1cccs1`, the EC50 [24] was > 50 µM (active).

In the case of `N#CC(c1ccc(Cl)nn1)c1ccc(Cl)cc1Cl` (stereo unspecified), the AC50 [25] is reported as 0.646 µM (active).

In the case of `O=C(C[n+]1ccccc1)c1ccc(Cl)cc1`, the IC50 [26] is reported as 5.96 µM (active) and the IC50 [27] is reported as > 100 µM (inactive).

For `CCCOc1ccc(C2C(C(=O)c3ccc(C)o3)=C(O)C(=O)N2Cc2ccco2)cc1OCC` (stereo unspecified), the IC50 [28] was 5.19 µM (active).

With `CCn1c2ccccc2c2cc(NC(=O)COC(=O)c3ccc(NC(=O)CC#N)cc3)ccc21` the IC50 [29] was > 67 µM (not active) and the IC50 [30] was 7.27 µM (active).

In the case of `COc1cc(NC(=O)c2cc(C3CC3)on2)ccc1Br`, the EC50 [31] is reported as > 5.57 µM (inactive).
